Results taken from patent publication US20040116530A1, “Tissue fibrosis inhibitors” (priority 2001, published 2004).
Marks after values point to notes of the source that are not given here.

How the values were obtained:
acute hepatitis = details: literature statement; cited from earlier work
[1] = system: dimethylnitrosamine-induced rat hepatitis models; assay: Dimethylnitrosamine-induced rat hepatitis model (hepatic injury and fibrogenesis); type: in vivo; details: for Hepatic Fibrogenesis Score: n=15, histology (azan stain), grade 0-4
Method: Dimethylnitrosamine was frequently administered to rats for 3 weeks to thereby make the rats have irreversible hepatic fibrogenesis. The rats are the test models in this experiment. As the index of hepatic injury and fibrogenesis, the hepatic hydroxyproline was measured in every rat and the liver tissue of each rat was pathologically analyzed. Based on the data, the tissue fibrogenesis-inhibiting effect of the prostaglandin-I2 agonist was evaluated.
10 mg/kg of dimethylnitrosamine was intra-abdominally administered to rats everyday in continuous 3 days a week, over a period of three weeks. 5 days after the final administration of dimethylnitrosamine, the liver was taken out of each rat and its weight was measured. Then, distal potion of the left lobe of the liver was cut out. A part of it was used for histologic analysis^*1) for hepatic fibrogenesis; and another part thereof was used for determination of hepatic hydroxyproline content^*2).
The test compound was orally administered to the rats from the initial dimethylnitrosamine administration to one day before the blood collection from the rats. On the day for dimethylnitrosamine administration, the test compound was administered 12 hours after the dimethylnitrosamine administration; and on the other day, it was administered once a day. The effect of the test compound for curing hepatic injury and fibrogenesis was investigated. The test compound was administered to three groups −1 mg/kg/day administration group (n =15), 3.2 mg/kg/day administration group (n=15), and 10 mg/kg/day administration group (n=15). To the comparative control group, 0 mg/kg administration group (n=15), a solvent was administered in place of the test compound. To confirm the presentation of hepatic fibrogenesis through
dimethylnitrosamine administration, a solvent in place of dimethylnitrosamine was administered to a no-treatment group (n=5).
A distal potion of the left lobe of the liver was fixed in 10% neutral buffer formalin liquid, then stained with azan to prepare an anatomicopathological specimen, on which the degree of fibrogenesis was classified into 5 grades according to the fibrogenesis criteria mentioned below.
Grade 0: No fibrogenesis was found.
Grade 1: Light fibrogenesis was found only locally in and around the portal vein and the central vein.
Grade 2: The fibrogenesis in and around the portal vein and the central vein extended to the lobe.
Grade 4: High-level fibrogenesis was found along with pseudo lobe formation.
A part of the left lobe of the liver that had been frozen at −80° C. was thawed, and 1 ml/500 mg-liver weight of phosphate balanced salt buffer (PBS(−), Dulbecco PBS(−)) was added to it. Then, this was homogenized in Polytron (power control 7, type; PT 10 20 350D, by KINEMATICA) for 1 minute. 4 ml of the thus-homogenized liquid was transferred into a screw cap-equipped centrifuge (by PYREX), and 0.4 ml of 9M HCl was added to it and incubated at120° C. for 8 hours (in DRYING STERILIZER SG-62, by YAMATO). Next, this was further incubated at 4° C. overnight, then neutralized with 6 M KOH and 9M HCl, and then filtered (pore size 0.45 μm, MILLIPORE). 1 ml of chloramine-T^(**) was added to 100 μl of the filtrate or a standard liquid^(*), and left at room temperature for 20 minutes. 1 ml of Ehrich solution^(***) was added to it, and incubated at 65° C. for 40minutes. The reaction was stopped in ice-water, and then the absorbance (OD560) of the reaction liquid was measured with an spectrophotometer UV2100PC (UV-VIS SCANNING SPECTRO PHOTOMETER, by SHIMADZU).

[2] = system: bleomycin-induced mouse fibrotic lung models; assay: Bleomycin-induced lung fibrosis model in mice; type: in vivo
Method: Bleomycin was frequently administered to mice for 10 days to thereby make the mice fibrotic lung. The mice are the test models in this experiment. As the index of lung fibrogenesis, the lung hydroxyproline was measured in every mouse, from which the effect of the prostaglandin-I2 agonist for inhibiting lung fibrogenesis was investigated.
1. 10 mg/kg of bleomycin that had been dissolved in saline to have a concentration of 1 mg/ml was intraperitoneally administered to 8-weeks-old male C57BL/6N mice, once a day, everyday for continuous 10 days. Saline alone was intraperitoneally administered to the negative control group.
2. To the animals of the positive control group and the test compound-administered group, 10 ml/kg of pure water or an aqueous solution of the test compound (32 mg/kg) was orally administered everyday during the test period from the start of the bleomycin administration.
3. 4 weeks after the start of the bleomycin administration, the animals were killed in a mode of euthanasia, the lung was taken out, its wet weight was measured, and the lung was then freesed at −30° C.
4. […]
5. The hydrolyzed sample was neutralized with 6 mols/liter of potassium hydroxide, and the hydroxyproline content of the sample was measured, from which the lung hydroxyproline content was derived. […]

[3] = test compound-administered groups (1, 3.2, 10 mg/kg/day oral) vs dimethylnitrosamine control, figure only

Structure (SMILES)	hepatic coagulation necrosis in acute hepatitis (acute hepatitis)	Hepatic Fibrogenesis Score ([1]; 1 mg/kg/day oral, control (0 mg/kg) 2.1 ± 0.2)	Hepatic Fibrogenesis Score ([1]; 3.2 mg/kg/day oral, p < 0.05 vs. 0 mg/kg (2.1 ± 0.2))	Hepatic Fibrogenesis Score ([1]; 10 mg/kg/day oral, p < 0.05 vs. 0 mg/kg (2.1 ± 0.2))	hepatic fibrogenesis (histology), in words ([1]; test compound-administered groups (1, 3.2, 10 mg/kg/day oral) vs dimethylnitrosamine control)	hepatic hydroxyproline content (hepatic collagen content) [1, 3]	liver weight reduction [1, 3]	Hydroxyproline Content (lung) ([2]; 32 mg/kg oral daily, 4 weeks after start of bleomycin, n=15, positive control 398.19 ± 15.483, negative control 200.03 ± 6.9707, p < 0.01 vs positive control)	increase in the lung hydroxyproline content caused by bleomycin administration ([2]; oral administration of 32 mg/kg)
CC#CCC(C)[C@H](O)/C=C/[C@@H]1[C@H]2c3cccc(CCCC(=O)O)c3O[C@H]2C[C@H]1O (mixture of isomers) [beraprost]	inhibits hepatic coagulation necrosis								
O=C(O)COc1cccc2c1CC[C@](O)(COC(=O)N(c1ccccc1)c1ccccc1)C2 [Test compound, [[(2R)-5-(carboxymethoxy)-2-hydroxy-1,2,3,4-tetrahydronaphth-2-yl]methyl]N,N-diphenylcarbamate]		1.7 ± 0.2	1.3 ± 0.2*	1.3 ± 0.2*	inhibited	decreased	suppressed	308.37 ± 19.403 ug/lung	significantly inhibited
